Read-outs that look alike come from different tables or passages of the source.
Legend:
Experiment in all cases: radioligand binding assay
[1] = target: T1, human recombinant vasopressin V1a receptor (Homo sapiens, UniProt P37288); conditions: read-out: Bingding Assy (IC50; nmol/mL) / V1a
T1 construct: gene AVPR1A; full-length recombinant receptor in 1321N1 host cells (PerkinElmer)
Source text: (§1) radioligand binding assay on human recombinant vasopressin V1a receptor

[2] = target: T2, human recombinant vasopressin V2 receptor (Homo sapiens, UniProt P30518); type: cell-based; conditions: read-out: Bingding Assy (IC50; nmol/mL) / V2
T2 construct: gene AVPR2; full-length recombinant receptor in 1321N1 host cells (PerkinElmer)
Source text: (§2) radioligand binding assay on human recombinant vasopressin V2 receptor

[3] = target: T1, human recombinant vasopressin V1a receptor; type: cell-based; conditions: read-out: Bingding Assy (IC50; nmol/mL) / V1a
Source text: as §1

[4] = target: T2, human recombinant vasopressin V2 receptor; conditions: read-out: Bingding Assy (IC50; nmol/mL) / V2
Source text: as §2

T1 sequence (P37288 whole entry): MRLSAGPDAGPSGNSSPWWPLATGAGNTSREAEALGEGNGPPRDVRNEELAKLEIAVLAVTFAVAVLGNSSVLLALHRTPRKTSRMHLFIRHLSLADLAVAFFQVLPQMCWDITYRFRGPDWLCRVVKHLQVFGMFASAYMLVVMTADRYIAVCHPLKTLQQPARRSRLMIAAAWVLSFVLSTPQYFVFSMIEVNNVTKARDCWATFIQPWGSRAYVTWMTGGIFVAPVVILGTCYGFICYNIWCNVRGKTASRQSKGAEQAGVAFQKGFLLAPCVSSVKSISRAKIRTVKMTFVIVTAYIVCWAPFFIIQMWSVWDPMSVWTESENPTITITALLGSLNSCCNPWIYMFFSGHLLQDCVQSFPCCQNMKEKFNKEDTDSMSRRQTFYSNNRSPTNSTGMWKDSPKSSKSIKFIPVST
T2 sequence (P30518 whole entry): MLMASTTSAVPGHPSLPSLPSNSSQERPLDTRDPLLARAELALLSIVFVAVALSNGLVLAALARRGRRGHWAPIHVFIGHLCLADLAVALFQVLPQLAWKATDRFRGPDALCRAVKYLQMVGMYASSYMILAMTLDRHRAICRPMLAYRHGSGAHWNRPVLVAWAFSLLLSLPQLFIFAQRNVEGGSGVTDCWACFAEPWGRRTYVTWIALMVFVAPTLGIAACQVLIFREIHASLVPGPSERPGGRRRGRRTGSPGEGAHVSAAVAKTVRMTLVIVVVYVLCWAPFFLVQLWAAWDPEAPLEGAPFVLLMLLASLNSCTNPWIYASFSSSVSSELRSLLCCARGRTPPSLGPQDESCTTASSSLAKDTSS

| Compound | IC50 [1] [nmol/mL] | IC50 [2] [nmol/mL] | IC50 [3] [nmol/mL] | IC50 [4] [nmol/mL] |
| --- | --- | --- | --- | --- |
| CCCC(=O)Nc1ccc(C(=O)N2CCC(=C3c4ccc(Cl)cc4CCc4cccnc43)CC2)cc1 [1b] | > 1000 | 47 |  |  |
| CCS(=O)(=O)Nc1ccc(C(=O)N2CCC(=C3c4ccc(Cl)cc4CCc4cccnc43)CC2)cc1 [1d, N-(4-(4-(8-Chloro-5H-benzo[5,6]cyclohepta[1,2-b]pyridin-11(6H)-ylidene)piperidine-1-carbonyl)phenyl)ethanesulfonamide] | 92 |  |  |  |
| CCCC(=O)Nc1cccc(S(=O)(=O)N2CCC(=C3c4ccc(Cl)cc4CCc4cccnc43)CC2)c1 [1e, N-(3-((4-(8-Chloro-5H-benzo[5,6]cyclohepta[1,2-b]pyridin-11(6H)-ylidene)piperidin-1-yl)sulfonyl)phenyl)butyramide] | 176 | 26 |  |  |
| CCCC(=O)Nc1ccc(S(=O)(=O)N2CCC(=C3c4ccc(Cl)cc4CCc4cccnc43)CC2)cc1 [1f, N-(4-((4-(8-Chloro-5H-benzo[5,6]cyclohepta[1,2-b]pyridin-11(6H)-ylidene)piperidin-1-yl)sulfonyl)phenyl)butyramide] | 480 | 40 |  |  |
| O=C(Nc1ccc(C(=O)N2CCC(=C3c4ccc(Cl)cc4CCc4cccnc43)CC2)cc1)c1ccccc1 [1g, N-(4-(4-(8-Chloro-5H-benzo[5,6]cyclohepta[1,2-b]pyridin-11(6H)-ylidene)piperidine-1-carbonyl)phenyl)benzamide] | 330 | 19 |  |  |
| Cc1ccccc1C(=O)Nc1ccc(C(=O)N2CCC(=C3c4ccc(Cl)cc4CCc4cccnc43)CC2)cc1 [1h] |  | 23 | 210 |  |
| Cc1ccc(C(=O)Nc2ccc(C(=O)N3CCC(=C4c5ccc(Cl)cc5CCc5cccnc54)CC3)cc2)cc1 [1i] |  | 18 | 220 |  |
| O=C(Nc1ccc(C(=O)N2CCC(=C3c4ccc(Cl)cc4CCc4cccnc43)CC2)cc1)c1ccccc1Cl [1k, 2-Chloro-N-(4-(4-(8-chloro-5H-benzo[5,6]cyclohepta[1,2-b]pyridin-11(6H)-ylidene)piperidine-1-carbonyl)phenyl)benzamide] |  | 27 | 490 |  |
| O=C(Nc1ccc(C(=O)N2CCC(=C3c4ccc(Cl)cc4CCc4cccnc43)CC2)cc1)c1cccc(Cl)c1 [1l, 3-Chloro-N-(4-(4-(8-chloro-5H-benzo[5,6]cyclohepta[1,2-b]pyridin-11(6H)-ylidene)piperidine-1-carbonyl)phenyl)benzamide] |  | 16 | 560 |  |
| O=C(Nc1ccc(C(=O)N2CCC(=C3c4ccc(Cl)cc4CCc4cccnc43)CC2)cc1)c1ccccc1F [1m, N-(4-(4-(8-Chloro-5H-benzo[5,6]cyclohepta[1,2-b]pyridin-11(6H)-ylidene)piperidine-1-carbonyl)phenyl)-2-fluorobenzamide] |  | 20 | 170 |  |
| O=C(Nc1ccc(C(=O)N2CCC(=C3c4ccc(Cl)cc4CCc4cccnc43)CC2)cc1)c1cccc([N+](=O)[O-])c1 [1o, N-(4-(4-(8-Chloro-5H-benzo[5,6]cyclohepta[1,2-b]pyridin-11(6H)-ylidene)piperidine-1-carbonyl)phenyl)-3-nitrobenzamide] |  | 18 | 550 |  |
| O=C(Nc1ccc(C(=O)N2CCC(=C3c4ccc(Cl)cc4CCc4cccnc43)CC2)cc1)c1ccc([N+](=O)[O-])cc1 [1p, N-(4-(4-(8-Chloro-5H-benzo[5,6]cyclohepta[1,2-b]pyridin-11(6H)-ylidene)piperidine-1-carbonyl)phenyl)-4-nitrobenzamide] |  | 52 | > 1000 |  |
| Cc1ccc(S(=O)(=O)Nc2ccc(C(=O)N3CCC(=C4c5ccc(Cl)cc5CCc5cccnc54)CC3)cc2)cc1 [1q, N-(4-(4-(8-Chloro-5H-benzo[5,6]cyclohepta[1,2-b]pyridin-11(6H)-ylidene)piperidine-1-carbonyl)phenyl)-4-methylbenzenesulfonamide] |  | 24 | 720 |  |
| O=C(c1ccc(NS(=O)(=O)c2ccccc2Cl)cc1)N1CCC(=C2c3ccc(Cl)cc3CCc3cccnc32)CC1 [1r, 2-Chloro-N-(4-(4-(8-chloro-5H-benzo[5,6]cyclohepta[1,2-b]pyridin-11(6H)-ylidene)piperidine-1-carbonyl)phenyl)benzenesulfonamide] |  |  | 830 |  |
| O=C(c1ccc(NS(=O)(=O)c2cc(Cl)ccc2Cl)cc1)N1CCC(=C2c3ccc(Cl)cc3CCc3cccnc32)CC1 [1s, 2,5-Dichloro-N-(4-(4-(8-chloro-5H-benzo[5,6]cyclohepta[1,2-b]pyridin-11(6H)-ylidene)piperidine-1-carbonyl)phenyl)benzenesulfonamide] |  |  | 320 |  |
| O=C(Nc1cccc(S(=O)(=O)N2CCC(=C3c4ccc(Cl)cc4CCc4cccnc43)CC2)c1)c1cccc(Cl)c1 [1u, 3-Chloro-N-(3-((4-(8-chloro-5H-benzo[5,6]cyclohepta[1,2-b]pyridin-11(6H)-ylidene)piperidin-1-yl)-sulfonyl)phenyl)benzamide] |  |  | 840 | 19 |
| O=C(Nc1cccc(S(=O)(=O)N2CCC(=C3c4ccc(Cl)cc4CCc4cccnc43)CC2)c1)c1cccc([N+](=O)[O-])c1 [1v, N-(3-((4-(8-Chloro-5H-benzo[5,6]cyclohepta[1,2-b]pyridin-11(6H)-ylidene)piperidin-1-yl)sulfonyl)phenyl)-3-nitrobenzamide] |  |  | 630 |  |

Second part, the compound after the results:

| IC50 [1] [nmol/mL] | IC50 [2] [nmol/mL] | IC50 [3] [nmol/mL] | IC50 [4] [nmol/mL] | Compound |
| --- | --- | --- | --- | --- |
| 130 |  |  |  | CCC(=O)Nc1ccc(C(=O)N2CCC(=C3c4ccc(Cl)cc4CCc4cccnc43)CC2)cc1 [1a] |
| > 1000 | 25 |  |  | O=C(CCCCl)Nc1ccc(C(=O)N2CCC(=C3c4ccc(Cl)cc4CCc4cccnc43)CC2)cc1 [1c, 4-Chloro-N-(4-(4-(8-chloro-5H-benzo[5,6]cyclohepta[1,2-b]pyridin-11(6H)-ylidene)piperidine-1-carbonyl)phenyl)butanamide] |
|  |  | 370 |  | Cc1cccc(C(=O)Nc2ccc(C(=O)N3CCC(=C4c5ccc(Cl)cc5CCc5cccnc54)CC3)cc2)c1 [1j, N-(4-(4-(8-Chloro-5H-benzo[5,6]cyclohepta[1,2-b]pyridin-11(6H)-ylidene)piperidine-1-carbonyl)phenyl)-3-methylbenzamide] |
|  |  | 390 |  | COc1cccc(C(=O)Nc2ccc(C(=O)N3CCC(=C4c5ccc(Cl)cc5CCc5cccnc54)CC3)cc2)c1 [1n, N-(4-(4-(8-Chloro-5H-benzo[5,6]cyclohepta[1,2-b]pyridin-11(6H)-ylidene)piperidine-1-carbonyl)phenyl)-3-methoxybenzamide] |
|  |  | > 1000 |  | O=C(Nc1cccc(S(=O)(=O)N2CCC(=C3c4ccc(Cl)cc4CCc4cccnc43)CC2)c1)c1ccccc1 [1t, N-(3-((4-(8-Chloro-5H-benzo[5,6]cyclohepta[1,2-b]pyridin-11(6H)-ylidene)piperidin-1-yl)sulfonyl)phenyl)benzamide] |
|  |  | 860 | 30 | Cc1ccc(S(=O)(=O)Nc2cccc(S(=O)(=O)N3CCC(=C4c5ccc(Cl)cc5CCc5cccnc54)CC3)c2)cc1 [1w, N-(3-((4-(8-Chloro-5H-benzo[5,6]cyclohepta[1,2-b]pyridin-11(6H)-ylidene)piperidin-1-yl)sulfonyl)phenyl)-4-methylbenzenesulfonamide] |
|  |  | > 1000 | 310 | O=C(Nc1ccc(S(=O)(=O)N2CCC(=C3c4ccc(Cl)cc4CCc4cccnc43)CC2)cc1)c1cccc(Cl)c1 [1x, 3-Chloro-N-(4-((4-(8-chloro-5H-benzo[5,6]cyclohepta[1,2-b]pyridin-11(6H)-ylidene)piperidin-1-yl)-sulfonyl)phenyl)benzamide] |
|  |  | 920 | 170 | Cc1ccc(S(=O)(=O)Nc2ccc(S(=O)(=O)N3CCC(=C4c5ccc(Cl)cc5CCc5cccnc54)CC3)cc2)cc1 [1y, N-(4-((4-(8-Chloro-5H-benzo[5,6]cyclohepta[1,2-b]pyridin-11(6H)-ylidene)piperidin-1-yl)sulfonyl)phenyl)-4-methylbenzenesulfonamide] |

From article PMC6271649, “Synthesis and Biological Evaluation of Substituted Desloratadines as Potent Arginine Vasopressin V2 Receptor Antagonists” (Molecules, 2014)
